# Source: article PMC9459403, “New inhibitors of cathepsin V impair tumor cell proliferation and elastin degradation and increase immune cell cytotoxicity” (Computational and Structural Biotechnology Journal, 2022)
# Legend:
# Assay type in all cases: cell-based, human
# [1] = test system: MCF7 cells; assay: Proliferation assay (CFSE-labeled cells, flow cytometry); settings: 72 h; E-64d 10 μM, pepstatin 20 μM, LHVS 10 nM, CLIK-148 1 μM
# Description: To assess the effect of cathepsin V inhibitors on cell proliferation, MCF7 cells were fluorescently labeled with carboxyfluorescein succinimidyl ester (CFSE; ImmunoChemistry Technologies, Bloomington, MN, USA) in PBS for 15 min at room temperature according to the manufacturer’s instructions. Cells were washed with PBS, resuspended in complete medium, seeded (at 4 × 10^4 cells/well) into 24-well plates, and allowed to adhere overnight. Cells were then treated with the following inhibitors: compound 7 (10 μM), E-64d (10 μM), CLIK-148 (1 μM), LHVS (10 nM), pepstatin (20 μM), their combinations, or DMSO (0.1 %) in 500 μL of medium for 72 h at 37 °C. To prepare cells for flow cytometry, cells were detached and transferred to round-bottomed polystyrene tubes and washed with PBS. Before measurement, 7-aminoactinomycin D (7-AAD; ImmunoChemistry Technologies, Bloomington, MN, USA) was added according to the manufacturer’s instructions to exclude dead cells. Therefore, the green fluorescence arising from CFSE was monitored only for viable cells. The measurement was performed using a FACSCalibur instrument (BD Biosciences, San Jose, CA, USA).
# [2] = test system: U-937-derived macrophages; assay: Intracellular elastin-FITC degradation; settings: 10 μM, 24 h, vs DMSO
# Description: To evaluate the effect of the inhibitors on the elastolytic activity of cathepsin V, we assessed the intracellular degradation of elastin-FITC, a soluble bovine neck ligament elastin that is heavily labeled with FITC such that the fluorescence of the conjugate is quenched. Upon proteolysis, fluorescence is recovered and can be detected. U-937 cells, differentiated into macrophage-like cells, were seeded (at 1 × 10^5 cells/well) into 24-well plates with 500 μL of medium supplemented with 50 nM PMA. Inhibitors or DMSO (0.1 %) and elastin-FITC (10 μg/mL; AnaSpec, Fermont, CA, USA) were added to the medium and incubated for 24 h at 37 °C. Cells were detached and washed with PBS, and propidium iodide (BD Bioscience) was added to exclude dead cells. Therefore, green fluorescence arising from elastin-FITC degradation was monitored only for viable cells. The measurement was performed using a FACSCalibur instrument (BD Biosciences).
# [3] = test system: cystatin F in U-937 cells; assay: Western blot of cystatin F dimer-to-monomer ratio; settings: U-937 cell lysates, 6 h treatment, 10 and 20 μM, vs control
# Description: Cells were treated with E-64d or compound 7 (both at 10 µM or 20 µM) for 6 h. After treatment, whole-cell lysates were prepared in RIPA buffer supplemented with cOmplete™ Protease Inhibitor Cocktail (Roche, Basel, Switzerland) and centrifuged at 16 000 × g for 20 min at 4 °C. Total protein concentration was determined using the DC assay (Biorad, Hercules, CA, USA). Proteins were separated by non-reducing SDS-PAGE and transferred to a nitrocellulose membrane using the TransBlot Turbo System (Biorad). After blocking, the membranes were incubated with primary antibodies overnight at 4 °C and with secondary antibodies for 1 h at room temperature. Bands were visualized using Clarity Max Western ECL substrate (Biorad), and protein loading was checked using Stain Free technology (Biorad). Images were acquired using the ChemiDoc ML Imaging System (Biorad), and quantification analysis was performed using Image Lab software (Biorad).
# The following primary antibodies were used: rabbit anti-cystatin F (1:375, HPA040442, Sigma), goat anti-cathepsin V (1:200, AF 1080, R&D, USA), and mouse anti-GAPDH (1:3000, 10494-I-AP, Proteintech, USA). […]
# [4] = test system: NK-92 effector cells on target K-562 cells; assay: Calcein AM release assay (cytotoxicity); settings: effector cells treated 10 µM, 6 h
# Description: (§1) Effector cells (NK-92 or TALL-104; 1 × 10^6/ml) were treated with E-64d (10 µM) or compound 7 (10 µM) for 6 h. NK-92 cells were pre-treated with 1000 IU IL2/mL overnight prior to the addition of inhibitors. Effector cells were added to a 96-well U-bottom plate to achieve a selected effector-to-target ratio (E:T). Target K-562 cells were labelled with 15 µM Calcein-AM (Sigma) in serum-free RPMI 1640 medium for 30 min at 37 °C. Cells were then washed twice and resuspended in complete RPMI 1640 medium. Target cells (n = 5000) were added to the effectors. The plate was centrifuged at 200 × g for 1 min and incubated at 37 °C and 5 % CO2 for 4 h. After incubation, the plate was centrifuged at 700 × g for 5 min. The supernatant (50 µL) was transferred to a new microtiter plate to measure the fluorescence of the released Calcein-AM with a Tecan M1000 microtiter plate reader using 496 nm excitation and 516 nm emission filters. The percentage of cytotoxicity was calculated as follows: 100(test release-spontaneous release)/(total release-spontaneous release). Spontaneous release was measured in wells containing only target cells. For total release, 2 % Triton X-100 was added to the wells to achieve lysis of target cells. Lytic units (LU) were calculated using the inverse of the number of effector cells needed to lyse 30 % of the target cells multiplied by 100.
# [5] = test system: TALL-104 effector cells on target K-562 cells; assay: Calcein AM release assay (cytotoxicity); settings: effector cells treated 10 µM, 6 h
# Description: as §1
smiles,measurement,setting,value
"CCOC(=O)[C@H]1O[C@@H]1C(=O)N[C@@H](CC(C)C)C(=O)NCCC(C)C [Compound E-64d, reference compound]",effect on cell proliferation (relative CFSE fluorescence intensity vs DMSO),[1],no effects on cell proliferation
same,decrease of elastin-FITC degradation,[2],18.4 ± 7.0%
same,cystatin F dimer-to-monomer ratio,[3],increased
same,cytotoxicity of NK-92 cells (target cell killing),[4],decreased cytotoxic function
same,cytotoxicity of TALL-104 cells (target cell killing),[5],decreased cytotoxic function
